From PubChem BioAssay (NCI)
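Values below derive from 48-hour exposures of cells grown in 96-well plates, with endpoints linearly interpolated between the two concentrations bracketing the appropriate inhibition level. TGI marks complete inhibition of growth.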

What was measured:
Assay in all cases: NCI anticancer screen, dose series, 48 h
COLO 205 colon = tested on: COLO 205 colon
NCI-H226 lung = tested on: NCI-H226 lung
HOP-62 NSCLC = tested on: HOP-62 NSCLC
SF-295 CNS = tested on: SF-295 CNS
NCI-H460 lung = tested on: NCI-H460 lung
HL-60(TB) leukemia = tested on: HL-60(TB) leukemia
MALME-3M melanoma = tested on: MALME-3M melanoma
SR leukemia = tested on: SR leukemia
RPMI-8226 leukemia = tested on: RPMI-8226 leukemia
HCC-2998 colon = tested on: HCC-2998 colon
IGROV1 ovarian = tested on: IGROV1 ovarian
A549 NSCLC = tested on: A549 NSCLC
OVCAR-5 ovarian = tested on: OVCAR-5 ovarian
MOLT-4 leukemia = tested on: MOLT-4 leukemia
MDA-MB-435 = tested on: MDA-MB-435
T-47D breast = tested on: T-47D breast
HS 578T breast = tested on: HS 578T breast

Structure (SMILES) | TGI (COLO 205 colon) [µM] | TGI (NCI-H226 lung) [µM] | TGI (HOP-62 NSCLC) [µM] | TGI (SF-295 CNS) [µM] | TGI (NCI-H460 lung) [µM] | TGI (HL-60(TB) leukemia) [µM] | TGI (MALME-3M melanoma) [µM] | TGI (SR leukemia) [µM] | TGI (RPMI-8226 leukemia) [µM] | TGI (HCC-2998 colon) [µM] | TGI (IGROV1 ovarian) [µM] | TGI (A549 NSCLC) [µM] | TGI (OVCAR-5 ovarian) [µM] | TGI (MOLT-4 leukemia) [µM] | TGI (MDA-MB-435) [µM] | TGI (T-47D breast) [µM] | TGI (HS 578T breast) [µM]
CC(=O)N(O)Cc1ccccc1 | > 100 | > 100 | > 100 | > 100 | > 100 | > 100 | > 100 | > 100 | > 100 | > 100 | > 100 | > 100 | > 100 | > 100 |  |  | 
CCOC(=O)C(C)c1nc2ccc(C(F)(F)F)cc2[nH]c1=O (stereo not drawn) | > 100 | > 100 | > 100 | > 100 | > 100 | > 100 | > 100 |  | > 100 | > 100 |  | > 100 | > 100 | > 100 | > 100 | 69.9 | > 100
O=C(NNS(=O)(=O)c1ccccc1)c1cccnc1 | > 100 | > 100 | > 100 | > 100 | > 100 | > 100 | > 100 |  | > 100 | > 100 | > 100 | > 100 | > 100 | > 100 | > 100 | > 100 | > 100
C#CC1(O)CCC2[C@@H]3CCc4cc(Oc5nc(F)nc(-c6c7ccccc7cn6C)n5)ccc4C3CC[C@@]21C (stereo partly drawn) | > 100 | > 100 | > 100 | > 100 | > 100 | > 100 | > 100 | > 72.6 | > 70.7 | > 100 |  | > 100 | > 100 | > 100 |  |  | 
C=CCCCCOC1C=CC(O)C(CO)O1 (stereo not drawn) | > 100 | > 100 | > 100 | > 100 | > 100 | > 100 | > 100 |  | > 100 | > 100 | > 100 | > 100 | > 100 | > 100 | > 100 | > 100 | > 100
OC12c3ccccc3C3CCC4(OCCO4)C3C1c1ccccc12 (stereo not drawn) | > 100 | > 100 | > 100 | > 100 | > 100 | > 100 | > 100 |  | > 100 | > 100 | > 100 | > 100 | > 100 | > 100 |  |  | 
O=S(=O)(O)c1ccc2c(N=Nc3ccc(Cl)cc3)c(O)ccc2c1 | > 100 |  | > 100 | > 100 |  |  | > 100 |  | > 100 |  | > 100 | > 100 | > 100 | > 100 | > 100 | > 100 | > 100
CCOC(=O)C1([Se]c2ccccc2)CCCC1=O (stereo not drawn) | 30.8 | 74.8 | > 100 | > 100 | > 100 | 23.5 | > 100 | 47.5 | 55.4 | > 100 | 78.4 | > 100 | > 100 | 57.1 |  |  | 
COc1nc2c(c(=O)n1C)N=C(c1ccc(Cl)cc1)CC(c1ccccc1)N2 (stereo not drawn) | > 100 | 45.6 | > 100 | 57.6 | 28.1 |  |  | > 100 | 54 | 35.8 | 51.5 | > 100 | 78.7 | 49.6 | > 100 |  | 
COc1ccc2c(c1)c(=O)c1c(NCCN(C)C)ccc3nnn2c31 | 10 | 9.44 | 15.4 | 13.9 | 8.54 | 5.51 | 17.2 | 2.9 | 6.13 | 17.8 | 17.4 | 12.8 | 19.6 | 2.99 |  |  | 
CCCN(CCC)c1c([N+](=O)[O-])cc(C(=O)N(CCO)CCO)cc1[N+](=O)[O-] | > 100 | > 100 |  | > 100 | > 100 | > 100 | > 100 |  | > 100 | > 100 | > 100 | > 100 | > 100 | > 100 |  |  | 
C=CCN(c1cc(OC)c2[nH]c(C(=O)OCC)c(C)c2c1[N+](=O)[O-])S(C)(=O)=O | 29.1 | 25.3 | > 100 | > 100 | > 100 | 46.5 | 60.8 |  | 32.8 | > 100 | > 100 | > 100 | 99.1 | 28.9 | 64.7 | 48.6 | 58.7
